The values below come from PubChem BioAssay (NCI).

SMILES strings stand for the structures.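 Where inhibition never reached the appropriate level, the endpoint shown equals the highest concentration tested. Otherwise, values were interpolated linearly from a five-concentration, 48-hour dose response in 96-well plates. The concentration for 50% growth inhibition is given as GI50. The concentration for full growth arrest is given as TGI.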

Among the test systems are MOLT-4 leukemia; U251 CNS; HOP-92 NSCLC; M14 melanoma; OVCAR-5 ovarian; LOX IMVI melanoma; ACHN renal; SK-OV-3 ovarian; HT29 colon; SR leukemia.
What all share (test): NCI tumour cell line growth inhibition, 48 h

Turning to `C=CCC(N[C@H](CO)c1ccccc1)c1cn(S(=O)(=O)c2ccc(C)cc2)c2ccccc12` (stereo not given in full), the GI50 in the experiment with MOLT-4 leukemia was 15.2 µM; in the experiment on U251 CNS it was 17.6 µM; in the experiment on HOP-92 NSCLC, 24.9 µM; in the experiment with M14 melanoma, 14.5 µM; in the experiment on OVCAR-5 ovarian, above 100 µM; in the experiment on LOX IMVI melanoma, 13.7 µM. Moreover, the GI50 in the experiment on ACHN renal is 18 µM; with SK-OV-3 ovarian it was 59.7 µM; in the experiment on HT29 colon, 31.2 µM. Further, the TGI with MOLT-4 leukemia was 41.4 µM; in the experiment on U251 CNS, 36 µM; in the experiment on HOP-92 NSCLC, above 100 µM; with M14 melanoma, 31.5 µM; in the experiment with OVCAR-5 ovarian, above 100 µM; with LOX IMVI melanoma, 27 µM. Also, the TGI in the experiment on ACHN renal is 45.2 µM; in the experiment with SK-OV-3 ovarian, above 100 µM; with HT29 colon, above 100 µM.

`COC(=O)OCc1ccc2c(c1)C(=O)c1c-2n(CCCBr)c(=O)c2cc([N+](=O)[O-])ccc12`: the GI50 is 31.6 µM in the experiment with MOLT-4 leukemia; 35.3 µM in the experiment on U251 CNS; 28.9 µM with HOP-92 NSCLC; above 100 µM in the experiment on OVCAR-5 ovarian; 74.3 µM in the experiment with LOX IMVI melanoma; 24.2 µM in the experiment with ACHN renal. The GI50 in the experiment on SK-OV-3 ovarian was 31.1 µM; in the experiment with HT29 colon it was above 100 µM. The TGI in the experiment on MOLT-4 leukemia was above 100 µM; in the experiment with U251 CNS it was above 100 µM; in the experiment on HOP-92 NSCLC it was 77.1 µM; with OVCAR-5 ovarian, above 100 µM; with LOX IMVI melanoma, above 100 µM; with ACHN renal, 93.8 µM. In addition, the TGI in the experiment with SK-OV-3 ovarian and in the experiment with HT29 colon was above 100 µM throughout.

`O=C1c2ccn(CCCCN3CCCCC3)c2C(=O)c2c1c(O)c1ccccc1c2O`: the GI50 is 3.49 µM in the experiment with MOLT-4 leukemia; 6.16 µM in the experiment on U251 CNS; 3.68 µM in the experiment on HOP-92 NSCLC; 2.46 µM in the experiment with M14 melanoma; 17.9 µM with OVCAR-5 ovarian; 1.72 µM in the experiment with LOX IMVI melanoma. The GI50 in the experiment with ACHN renal is 18.7 µM; with SK-OV-3 ovarian, 15.8 µM; in the experiment with HT29 colon, 4.14 µM. In addition, the TGI with MOLT-4 leukemia is above 100 µM; with HOP-92 NSCLC, 22.9 µM; with M14 melanoma it was 9.7 µM; in the experiment on OVCAR-5 ovarian, above 46 µM; with LOX IMVI melanoma, 4.3 µM; with ACHN renal, 38.5 µM. The TGI with SK-OV-3 ovarian was 43.4 µM; with HT29 colon, above 100 µM.

As for `c1cc[c]([Sn]([S]c2cccc3cccnc23)([S]c2cccc3cccnc23)[c]2ccccc2)cc1`, the GI50 was 0.101 µM with MOLT-4 leukemia; 0.482 µM with U251 CNS; 0.158 µM in the experiment with HOP-92 NSCLC; 0.188 µM with M14 melanoma; 1.34 µM in the experiment with OVCAR-5 ovarian; 0.186 µM in the experiment on LOX IMVI melanoma. Also, the GI50 is 0.209 µM with ACHN renal, 0.588 µM in the experiment with SK-OV-3 ovarian and 0.222 µM with HT29 colon. The TGI in the experiment with MOLT-4 leukemia was found to be 0.542 µM; with U251 CNS, 1.92 µM; in the experiment with HOP-92 NSCLC, 0.493 µM; in the experiment with M14 melanoma, 0.393 µM; in the experiment on OVCAR-5 ovarian it was 2.69 µM; in the experiment on LOX IMVI melanoma, 0.402 µM. For the same compound, the TGI in the experiment with ACHN renal was 0.496 µM; with SK-OV-3 ovarian, 2.07 µM; in the experiment with HT29 colon, 0.565 µM.

As to `N#CC(C(=N/NC(N)=S)/C(=N/NC(N)=S)C(C#N)c1ccc(Cl)cc1)c1ccc(Cl)cc1` (stereo not given), the TGI in the experiment with MOLT-4 leukemia, with U251 CNS, in the experiment with HOP-92 NSCLC, in the experiment on M14 melanoma, in the experiment on OVCAR-5 ovarian and in the experiment with LOX IMVI melanoma was above 100 µM in each case. The TGI in the experiment with ACHN renal, in the experiment on SK-OV-3 ovarian and in the experiment with HT29 colon was above 100 µM throughout.

As for `CC(=O)/C=C/C1=C(c2cccs2)c2ccccc2CC1`, the GI50 was 22.8 µM in the experiment on U251 CNS; 18.8 µM with M14 melanoma; 60.7 µM with OVCAR-5 ovarian; 17.8 µM in the experiment on LOX IMVI melanoma; 22.5 µM in the experiment with ACHN renal; 42 µM with SK-OV-3 ovarian. The results for the GI50 in the experiment on HT29 colon and in the experiment with SR leukemia were 26.9 µM and 23.6 µM, respectively. In addition, the TGI in the experiment on U251 CNS is 51.1 µM; in the experiment on M14 melanoma, 41.7 µM; in the experiment with OVCAR-5 ovarian, above 100 µM; with LOX IMVI melanoma it was 34.2 µM; with ACHN renal it was 57.5 µM; with SK-OV-3 ovarian it was above 100 µM. For the same compound, the TGI came out at 68.4 µM in the experiment on HT29 colon and 51.8 µM in the experiment with SR leukemia.

For `CCCCCCC#CC#Cc1cccc(=O)o1`, the GI50 in the experiment on MOLT-4 leukemia was 2.31 µM; with U251 CNS, 2.07 µM; with HOP-92 NSCLC, 3.24 µM; in the experiment with M14 melanoma, 0.878 µM; with OVCAR-5 ovarian, 2.25 µM; in the experiment with LOX IMVI melanoma, 0.122 µM. The GI50 with ACHN renal was 1.84 µM; with SK-OV-3 ovarian, 23.8 µM; in the experiment on HT29 colon it was 3.69 µM. In addition, the TGI in the experiment on MOLT-4 leukemia was above 21 µM; in the experiment with U251 CNS it was 4.92 µM; in the experiment on HOP-92 NSCLC it was 8.92 µM; in the experiment on M14 melanoma it was 2.8 µM; in the experiment on OVCAR-5 ovarian, 4.95 µM; in the experiment on LOX IMVI melanoma, 0.43 µM. The TGI with ACHN renal is 3.96 µM; with SK-OV-3 ovarian it was above 70 µM; in the experiment on HT29 colon, 34.6 µM.

As to `CC(=O)c1cc2c(c3ccsc13)-c1ccccc1CC2`, the GI50 is 34.7 µM in the experiment with U251 CNS; 28.9 µM in the experiment with HOP-92 NSCLC; 27.7 µM in the experiment with M14 melanoma; 39.4 µM with OVCAR-5 ovarian; 32.3 µM in the experiment on LOX IMVI melanoma; 45.5 µM in the experiment on ACHN renal. The GI50 in the experiment with SK-OV-3 ovarian is above 100 µM; with HT29 colon, 58.4 µM. The TGI in the experiment on U251 CNS is above 100 µM; in the experiment with HOP-92 NSCLC, above 100 µM; with M14 melanoma, 89.8 µM; in the experiment on OVCAR-5 ovarian, above 100 µM; in the experiment with LOX IMVI melanoma, above 100 µM; in the experiment with ACHN renal, above 100 µM. Further, the TGI in the experiment with SK-OV-3 ovarian and in the experiment with HT29 colon was above 100 µM in each case.

As to `CC1(C)CC(=O)C(=[N+]=[N-])C(=O)C1`, the TGI in the experiment with HOP-92 NSCLC, with M14 melanoma, in the experiment with OVCAR-5 ovarian, in the experiment on LOX IMVI melanoma, in the experiment on ACHN renal and in the experiment on SK-OV-3 ovarian was above 100 µM throughout. In addition, the TGI in the experiment on HT29 colon was above 100 µM.
